{
  "source": "patent US20260000781A1",
  "about": "“FC CONJUGATES INCLUDING AN INHIBITOR OF CD73 AND USES THEREOF” (Cidara Therapeutics, Inc., priority 2022, published 2026)",
  "key": {"[1]": {"test_system": "adenosine production by human PBMCs", "assay": "PBMC activation assay, AMP conversion by CellTiter-Glo", "format": "cell-based", "conditions": "30 μM AMP, 72 h", "description": "Human PBMCs (StemCell Technologies cat no. 70025) prepared in ImmunoCult™—XF T cell Expansion medium (StemCell Technologies cat no. 10981) were seeded at 1×10^5 cells per well (100 μL of 1×10^6 cells/mL) in the presence or absence of T cell activator anti-CD3/CD28/CD2 (StemCell Technologies cat no. 10970) in 96 well round bottom plates (Corning cat no. 3788). Ten-fold serial dilutions of each test article was prepared in medium (ranging from 4,000 nM-0.4 nM), resulting in final concentrations ranging from 1,000 nM-0.1 nM. 50 μL of test article was added to the cells, followed by 50 μL of adenosine 5′ monophosphate (AMP; MilliporeSigma cat no. A1752) for a final concentration of 30 μM. Plates were incubated at 37° C. with 5% CO2 for 72 h. After 72 h the cells were centrifuged for 5 min at 300×g at 4° C. and the supernatant was reserved for analysis of AMP conversion using CellTiter-Glo (Promega cat no. G7571).\n25 μL of reserved supernatant was transferred to a white 96-well plate (Corning cat no. 3917) and combined with 25 μL of a 1 μM adenosine 5′ triphosphate (ATP; MilliporeSigma cat no. A7699) solution. 50 μL of CellTiter-Glo reagent was added, and the plate incubated for 10 min at room temperature. Luminescence was measured using an EnSpire plate reader (PerkinElmer). […]"}, "[2]": {"target": "T1, CD73 expressed on the MDA-MB-231 cell surface (Homo sapiens, UniProt P21589)", "T1 construct": "host or cells: MDA-MB-231", "T1 sequence (P21589 27-549)": "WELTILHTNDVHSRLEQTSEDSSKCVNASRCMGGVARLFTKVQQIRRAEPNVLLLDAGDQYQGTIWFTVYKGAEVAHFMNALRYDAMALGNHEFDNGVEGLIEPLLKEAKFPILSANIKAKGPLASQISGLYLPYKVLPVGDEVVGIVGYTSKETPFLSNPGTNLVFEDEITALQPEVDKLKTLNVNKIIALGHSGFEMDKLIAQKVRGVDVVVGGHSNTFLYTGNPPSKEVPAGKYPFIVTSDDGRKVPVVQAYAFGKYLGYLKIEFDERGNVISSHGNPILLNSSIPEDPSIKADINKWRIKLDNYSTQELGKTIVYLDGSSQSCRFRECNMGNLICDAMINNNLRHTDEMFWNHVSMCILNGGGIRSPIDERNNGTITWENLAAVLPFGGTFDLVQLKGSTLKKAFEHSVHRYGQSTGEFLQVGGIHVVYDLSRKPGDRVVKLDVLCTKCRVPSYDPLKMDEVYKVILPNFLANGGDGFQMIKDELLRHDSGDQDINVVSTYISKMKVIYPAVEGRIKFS", "assay": "Cell-based CD73 enzyme inhibition assay on MDA-MB-231 cells", "conditions": "AMP 400 μM, 3 h (FIG. 3)", "description": "The cell-based CD73 enzyme inhibition assay was performed essentially as described above for the cell-free assay, with the following modifications.\n(§1) The cell-based CD73 enzyme inhibition assay was performed essentially as described above for the cell-free assay, with the following modifications. MDA-MB-231 human breast adenocarcinoma cells (ATCC CRM-HTB-26) were seeded at 2×10^4 cells/well/100 μL into 96-well tissue culture-treated plates (Corning Costar cat no. 3596) and incubated overnight at 37° C., 5% CO2. […] The 96-well plate was then centrifuged at 125×g for 5 min at room temperature and ATP (25 μL/well, 100 μM final) was combined with supernatant (25 μL/well) in a white opaque 96-well plate (Corning Costar cat no. 3912).\nas §1, with “3912). […] Percent CD73 inhibition (y-axis) versus log10 inhibitor concentration (x-axis) were plotted using GraphPad Prism Version 8 and IC50's calculated using nonlinear regression analysis (Sigmoidal, 4 PL).” for “3912).”"}},
  "data": [
    {"smiles": "C[C@H](Nc1cc(Cl)nc2c1cnn2[C@@H]1O[C@H](COP(=O)(O)CP(=O)(O)O)[C@@H](O)[C@H]1O)c1ccccc1F", "note": "[AB680]", "values": [
      {"measurement": "EC50", "setting": "[1]; Homo sapiens, PBMC", "value": 5, "unit": "nM"}
    ]},
    {"smiles": "COC[C@](CO)(OC[C@H]1O[C@@H](n2ncc3c(NC4CCCC4)nc(Cl)nc32)[C@H](O)[C@@H]1O)P(=O)(O)O", "note": "[OP5244]", "values": [
      {"measurement": "EC50", "setting": "[1]", "value": 1, "unit": "nM"}
    ]},
    {"smiles": "COC[C@](CO)(OC[C@H]1O[C@@H](n2ncc3c(NC4CCCC4)nc(Cl)nc32)[C@H](O)[C@@H]1O)P(=O)(O)O", "note": "[OP-5244]", "values": [
      {"measurement": "IC50", "setting": "[2]", "value": 0.31, "unit": "nM"}
    ]},
    {"smiles": "O=P(O)(O)COC[C@H]1O[C@@H](n2ncc3c(N4CC5(CCc6ccccc65)C4)nc(Cl)nc32)[C@H](O)[C@@H]1O", "note": "[SHR170008]", "values": [
      {"measurement": "IC50", "setting": "[2]", "value": 4.87, "unit": "nM"}
    ]}
  ]
}
